T1: tomato EIN2-ETR1 complex (Solanum lycopersicum, UniProt Q41342)
T1 construct: made in house; host or cells: E. coli BL21(DE3) with pRARE (LeEIN2 fragment); E. coli (LeETR1)
T1 sequence (Q41342 1-754): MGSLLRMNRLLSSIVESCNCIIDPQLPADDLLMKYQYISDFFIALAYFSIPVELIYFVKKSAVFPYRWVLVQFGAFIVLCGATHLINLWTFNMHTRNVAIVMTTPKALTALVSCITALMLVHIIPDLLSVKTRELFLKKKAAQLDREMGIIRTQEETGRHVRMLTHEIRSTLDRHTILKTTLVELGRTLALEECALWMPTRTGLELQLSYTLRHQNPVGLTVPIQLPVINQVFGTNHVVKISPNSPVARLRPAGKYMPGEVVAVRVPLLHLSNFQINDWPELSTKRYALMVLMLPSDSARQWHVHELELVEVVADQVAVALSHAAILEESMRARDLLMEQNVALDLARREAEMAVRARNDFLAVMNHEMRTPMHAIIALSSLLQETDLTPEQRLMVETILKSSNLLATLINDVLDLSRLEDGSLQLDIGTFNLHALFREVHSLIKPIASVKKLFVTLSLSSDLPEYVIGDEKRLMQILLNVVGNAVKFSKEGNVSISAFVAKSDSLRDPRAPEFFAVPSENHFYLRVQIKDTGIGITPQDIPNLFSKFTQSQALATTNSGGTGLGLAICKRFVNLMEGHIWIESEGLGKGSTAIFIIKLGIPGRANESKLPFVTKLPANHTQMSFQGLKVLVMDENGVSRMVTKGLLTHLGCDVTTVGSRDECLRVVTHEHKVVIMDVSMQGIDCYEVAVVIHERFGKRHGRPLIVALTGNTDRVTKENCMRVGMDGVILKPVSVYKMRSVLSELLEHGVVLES

T2: C-terminal part of tomato EIN2 (LeEIN2^462–1316) (tomato, UniProt Q6Q2C1 462-1316, unlabeled in the MST titration of labeled LeETR1; Alexa Fluor 488 label in the reverse MST titration; Alexa Fluor 568 succinimidyl-ester label in the FRET assay)
T2 construct: the N-terminal membrane domain (aa 1-461) was deleted from the full-length cDNA; The purified protein was detected with an anti-polyhistidine antibody; no tag removal is described; also called C-terminal domain of tomato EIN2; source: E. coli BL21(DE3) with pRARE, purified (HisTrap FF, PD-10 desalting)
T2 sequence (looked up): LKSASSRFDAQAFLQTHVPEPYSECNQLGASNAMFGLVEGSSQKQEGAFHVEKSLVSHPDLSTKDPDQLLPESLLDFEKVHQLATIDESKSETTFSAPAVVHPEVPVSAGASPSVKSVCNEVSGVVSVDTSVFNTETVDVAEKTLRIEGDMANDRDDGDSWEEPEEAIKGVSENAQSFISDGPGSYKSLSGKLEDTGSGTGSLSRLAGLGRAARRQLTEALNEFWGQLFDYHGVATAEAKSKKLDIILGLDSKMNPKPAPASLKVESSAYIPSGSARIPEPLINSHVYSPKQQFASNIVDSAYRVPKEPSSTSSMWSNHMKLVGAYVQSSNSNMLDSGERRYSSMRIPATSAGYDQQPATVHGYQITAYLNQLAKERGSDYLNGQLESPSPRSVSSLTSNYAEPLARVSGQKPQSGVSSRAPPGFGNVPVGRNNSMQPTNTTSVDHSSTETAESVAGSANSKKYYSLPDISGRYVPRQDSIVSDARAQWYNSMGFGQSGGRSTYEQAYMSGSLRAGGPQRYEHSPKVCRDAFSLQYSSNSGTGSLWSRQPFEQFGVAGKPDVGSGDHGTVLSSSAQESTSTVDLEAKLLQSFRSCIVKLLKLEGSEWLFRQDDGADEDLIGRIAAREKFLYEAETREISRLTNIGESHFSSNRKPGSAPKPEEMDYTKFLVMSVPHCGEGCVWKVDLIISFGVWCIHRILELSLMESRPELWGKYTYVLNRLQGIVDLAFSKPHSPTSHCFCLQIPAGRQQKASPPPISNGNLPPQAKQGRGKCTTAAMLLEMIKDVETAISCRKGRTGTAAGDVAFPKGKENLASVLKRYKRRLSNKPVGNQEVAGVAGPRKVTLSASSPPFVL

B1: tomato ethylene receptor protein LeETR1 (receptor, UniProt Q41342 1-754, looked up)
chain: T1 sequence (Q41342 1-754)
modifications: Alexa Fluor 488 succinimidyl-ester label (MST with LeEIN2, FRET assay); Alexa Fluor 488-Maleimide label (MST with NOP-1); non-labeled in the reverse MST titration
notes: ethylene receptor ETR1 of tomato (LeETR1); Membrane protein kept in 0.015% Fos-Choline-16 for MST; also called tomato ETR1; tomato receptor
B2: NOP-1 (LKRYKRRL-NH2) (peptide)
peptide: H-LKRYKRRL-NH2
notes: the motif is fully conserved in tomato EIN2; also called NLS-based peptide; source: synthetic peptide (Molecular Proteomics Laboratory of the BMFZ Düsseldorf, >90% purity)

Assay [1] relates to green, immature tomato fruits. Description: Tomato fruit ripening after inhibitor treatment. Particulars: for delay in maturation of tomato fruits: 200 μM, all tested inhibitors and all applications of NOP-1 (injection, incubation, surface application), documented for 20 days, three fruits per application. Format: in vivo, tomato (Solanum pimpinellifolium). From the text: To further investigate the potential of NOP-1 for agricultural applications, we tested the effect of the NOP-1 peptide on tomato fruit ripening in comparison to other known inhibitors of ethylene responses. To this end we tested […] (MCP) and aminoethoxyvinylglycine (AVG). MCP is a known inhibitor of ethylene signaling blocking ethylene binding at the receptor proteins, whereas AVG blocks ethylene production in the plant by competitive inhibition of ACC synthases. To monitor inhibition of the fruit ripening process, we treated green, immature tomato fruits with 200 μM NOP-1, MCP or AVG, respectively and documented the fruit ripening process for 20 days. Figure 3 compares the effect of the different inhibitor treatments on tomato fruits to controls lacking the inhibitory treatment that contain either buffer alone or a random sequence control peptide (ROP-1). […] The bioassays underline the high inhibitory potential of NOP-1 on the ripening process compared to the well-known and efficient inhibitors of ethylene responses.
Inhibitor-treatment of tomato fruits
Aminoethoxyvinyl glycine (AVG) was purchased from Sigma-Aldrich, St Louis, MO (purity ~95%). SmartFresh^SM (AgroFresh, Spring House, PA) was used as sugar-based powder formulation of 1-MCP. Concentration of 1-MCP was calculated according to the percentage of active ingredient (0.14%) and release from the SmartFresh^SM powder. For comparison concentration of all inhibitors are expressed in terms of molarity. For treatment of tomato fruits with NOP-1, AVG and MCP, inhibitors were dissolved in the FRET buffer described in the previous section to a final concentration of 200 μM. Green tomato fruits (Solanum pimpinellifolium) from the same estimated developmental stage were harvested from the panicle and water-cleaned. 300 μL of the inhibitor solution was applied onto the tomato surface with a brush and the fruits were air-dried for 30 min. As an alternative application, tomato fruits were plunged into 2 mL of the inhibitor solution and incubated for 30 min in this solution or 200 μL of the peptide-containing solution were carefully injected into the tomato tissue by a hypodermic syringe. Three individual tomato fruits were treated for the different applications of the peptide in order to document the ripening process. After inhibitor-treatment tomato fruits were transferred to a vial closed with aluminum foil and stored in the dark at room temperature. Maturation process was documented every second day for at least 20 days. For measurement of ethylene production, green tomato fruits were treated as described above.

The target of another assay is T1, tomato EIN2-ETR1 complex. Nature of the assay: FRET assay of LeEIN2-LeETR1 complex formation. Particulars: FRET assay; 100 μM peptide where stated; LeETR1-Alexa Fluor 488 and LeEIN2-Alexa Fluor 568, 3 μM each. Format: biochemical. From the text:
(§1) For this purpose, we made use of a fluorescence resonance energy transfer (FRET)-based in vitro assay, originally established for the respective Arabidopsis signaling proteins. Recombinant ethylene proteins LeETR1 and LeEIN2^462–1316 were labeled with fluorescent Alexa dyes[36] as described in the Methods section. LeETR1 was labeled with Alexa Fluor 488, while LeEIN2^462–1316 was labeled with Alexa Fluor 568. As the emission spectrum of the donor fluorophore partially overlaps with the excitation spectrum of the acceptor fluorophore, the dyes form a FRET pair and energy transfer from the donor to the acceptor fluorophore is possible when both probes get in close proximity. […] Formation of the complex is monitored by FRET from the donor molecule Alexa Fluor 488 to the acceptor molecule Alexa Fluor 568. Processes or molecules that prevent complex formation result in a reduced FRET from the donor to the acceptor, which is detected as reduced acceptor fluorescence at the emission maximum.
Quantitative analysis of inhibitory peptides on ETR1-EIN2 complex by FRET
For the FRET assay, recombinant LeETR1 was labeled with Alexa Fluor 488 succinimidyl-ester and LeEIN2^462–1316 was labeled with Alexa Fluor 568 succinimidyl-ester (both Life Technologies) in a buffer containing 50 mM potassium phosphate pH 8.0, 300 mM NaCl and 5% (v/v) glycerol following manufacturer’s protocol (MolecularProbes Protein Labeling Kit). Labeled proteins were transferred in FRET buffer containing 50 mM Tris-HCl pH 8.0, 300 mM NaCl, 0.05% (v/v) Tween 20, 5% (v/v) glycerol and mixed at a final concentration of 3.0 μM each. […] The FRET-based binding assay was carried out in 384-well microplates using an Infinite M200 Pro microplate reader (Tecan) at 455 nm excitation wavelength. Emission spectra were detected between 565 nm to 645 nm. FRET efficiencies were calculated from the maximal emission in the absence and in the presence of the supplied peptides and the half maximal inhibitor concentration IC50 was calculated as previously described.

The nature of assay [2]: Fluorescence of the dyes on their own (FRET control). The conditions noted are these: 100 μM peptide; free dyes.
Description: as §1
(b) Calculation of IC50 value for NOP-1. Data were obtained in the FRET-assay in presence of increasing concentrations of NOP-1 peptide. […] (c) Determination of Kd value of NOP-1 binding to LeETR1 based on MST is illustrated. MST-signal is plotted against the NOP-1 concentration. […] All data (a,b,c) represent the mean +/− standard deviation.

Assay [3] addresses T2, C-terminal part of tomato EIN2 …. Nature of the assay: MST; 0.4 μM LeETR1-Alexa Fluor 488 titrated with LeEIN2 462-1316 (4.69 nM to 9.6 μM); 50 mM Tris-HCl pH 8.0, 300 mM NaCl, 0.015% Fos-Choline-16; Monolith NT.115, 80% MST power, triplicates. Particulars: both partners purified.
Assay [4] shares this target. Description: MST; LeEIN2 462-1316 labeled with Alexa Fluor 488 titrated with non-labeled LeETR1 (Supplementary Fig. S3). The conditions noted are these: both partners purified.
In assay [5] the target is B1. Nature of the assay: MST; 50 nM LeETR1 labeled with Alexa Fluor 488-Maleimide titrated with NOP-1 (3.8 nM to 31 μM); 50 mM Tris-HCl pH 8.0, 300 mM NaCl, 0.015% Fos-Choline-16; 80% MST power; 1:1 model. Particulars: both partners purified.
The target of assay [6] is B1. Description: FRET or BRET; in vitro FRET: LeETR1-Alexa Fluor 488 (donor) and LeEIN2 462-1316-Alexa Fluor 568 (acceptor), 3.0 μM each; 50 mM Tris-HCl pH 8.0, 300 mM NaCl, 0.05% Tween 20, 5% glycerol; proteins pre-incubated with peptides; excitation 455 nm, 384-well plates. Particulars: both partners purified. A general note: Bioluminescence resonance energy transfer reports proximity on the nanometre scale.

“Also recorded” adds a separate entry of the source.

These results are taken from publication PMC4967898, “Peptides interfering with protein-protein interactions in the ethylene signaling pathway delay tomato fruit ripening” (Scientific Reports, 2016).

Turning to `NCCO/C=C/[C@H](N)C(=O)O` [AVG, aminoethoxyvinylglycine, reference compound], in assay [1], the “delay in maturation of tomato fruits” value was 10 to 15 days.

As to “EFLYMSVN-NH2 [ROP-1, reference compound]”, the “effect on tomato fruit ripening (in words)” value in assay [1] (compared with buffer or untreated control, inhibitors at 200 μM) is reported as “no effect on the ripening process; also recorded: A related delay in ripening was not observed”. Further, the “effect on tomato EIN2-ETR1 complex formation” value at tomato EIN2-ETR1 complex is “no effect on tomato EIN2-ETR1 complex formation was observed”. For the same molecule, in assay [2], the “effect on fluorescence of the dyes on their own” value is listed as “not affected by the peptides; also recorded: Neither of both peptides affected fluorescence of the free, unlabeled dyes”.

On to `CC1=CC1` [MCP, 1-methylcyclopropane, reference compound], for which, in assay [1], the “delay in maturation of tomato fruits” value was in the range of 10 to 15 days.

One may read the Kd as the free concentration of one partner at which half of the binding sites on the other are occupied at equilibrium, for simple one-to-one binding. The low end stands for a tighter complex, the high end for a looser complex. In the case of B1, the dissociation constant Kd worked out at 619 nM in assay [3] and 651 nM in assay [4].

The IC50 is the point on the concentration scale where inhibition reaches its midpoint. A higher IC50 goes with a need for much substance. Turning to B2, the Kd in assay [5] stood at 156 nM. Further, in assay [6], the IC50 is 160000 nM.
